Test system: human HepG2 cell lines
Type: cell-based
Conditions: human HepG2 cell line

Row | Structure (SMILES) | Cytotox HepG2 [µM]
1 | CC(C)Oc1cc(-c2cn3c(-c4ccc5[nH]ncc5c4F)c(C(F)(F)F)nc3cn2)ccc1F [Example 81, 3-(4-Fluoro-1H-indazol-5-yl)-6-(4-fluoro-3-isopropoxy-phenyl)-2-trifluoromethyl-imidazo[1,2-a]pyrazine] | 9.2
2 | Fc1ccc(-c2cn3c(-c4ccc5[nH]ncc5c4F)c(C(F)(F)F)nc3cn2)cc1C1CCC1 [Example 82, 6-(3-Cyclobutyl-4-fluoro-phenyl)-3-(4-fluoro-1H-indazol-5-yl)-2-trifluoromethyl-imidazo[1,2-a]pyrazine] | 6.1
3 | CC(C)c1cc(-c2cn3c(-c4ccc5[nH]ncc5c4Cl)c(C(F)(F)F)nc3cn2)ccc1F [Example 83, 3-(4-Chloro-1H-indazol-5-yl)-6-(4-fluoro-3-isopropyl-phenyl)-2-trifluoromethyl-imidazo[1,2-a]pyrazine] | 6.6
4 | Fc1ccc(-c2cn3c(-c4ccc5[nH]ncc5c4F)c(C(F)(F)F)nc3cn2)cc1C1CC1 [Example 84, 6-(3-Cyclopropyl-4-fluoro-phenyl)-3-(4-fluoro-1H-indazol-5-yl)-2-trifluoromethyl-imidazo[1,2-a]pyrazine] | 10.5
5 | CC(C)Oc1cccc(-c2cn3c(-c4ccc5[nH]ncc5c4F)c(C(F)(F)F)nc3cn2)c1 [Example 86, 3-(4-Fluoro-1H-indazol-5-yl)-6-(3-isopropoxy-phenyl)-2-trifluoromethyl-imidazo[1,2-a]pyrazine] | 13.2
6 | CC(C)c1cc(-c2cn3c(-c4ccc5[nH]ncc5c4F)c(C(F)(F)F)nc3cn2)ccn1 [Example 87, 3-(4-Fluoro-1H-indazol-5-yl)-6-(2-isopropyl-pyridin-4-yl)-2-trifluoromethyl-imidazo[1,2-a]pyrazine] | 9.5
7 | Fc1c(-c2c(C(F)(F)F)nc3cnc(-c4ccnc(C(F)(F)F)c4)cn23)ccc2[nH]ncc12 [Example 88, 3-(4-Fluoro-1H-indazol-5-yl)-2-trifluoromethyl-6-(2-trifluoromethyl-pyridin-4-yl)-imidazo[1,2-a]pyrazine] | 7.0
8 | CC(C)c1nc2cnc(-c3cccc(C(F)(F)F)c3)nc2n1-c1ccc(O)cc1F [Example 90, 3-fluoro-4-[8-(propan-2-yl)-2-[3-(trifluoromethyl)phenyl]-9H-purin-9-yl]phenol] | 9.3
